In PubChem BioAssay AID1918930 (Molecular Pharmacology Branch, DTP, NCI, 2023):
Values joined by “and” are separate entries in the source; they are usually repeats but may differ in a detail not shown here. Identical values can stand only once.

Test system: 233499-124-R-J3-PDC complex spheroid viability, % test/control
Assay: Anticancer human tumor 233499-124-R-J3-PDC patient-derived colon adenocarcinoma cell line growth inhibition
Details: for viability, T/C: stronger effect = lower value
Outline: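 Complex spheroids of tumor cells with HUVEC and human MSCs, exposed to iadademstat combined with other agents. Each agent tested in half-log steps from near clinical Cmax (else 10 microM top), DMSO ≤0.25%.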

[1] = curve of first compound, second compound 0.1 µM
[2] = curve of first compound, second compound 0.316 µM
[3] = curve of first compound, second compound 1 µM
[4] = curve of first compound, second compound 3.16 µM
[5] = curve of first compound, second compound 10 µM
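Also: spheroids exposed to agents for one week before readout.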

With `O=C(c1cc(Cc2n[nH]c(=O)c3ccccc23)ccc1F)N1CCN(C(=O)C2CC2)CC1` + NC1CC1c1ccc(-c2cccc(O)c2)cc1 the IC50 [1] was greater than 10000 nM, the IC50 [2] was greater than 10000 nM and the IC50 [3] was greater than 10000 nM. The IC50 [4] was greater than 10000 nM, the IC50 [5] was greater than 10000 nM and the viability, T/C (second compound 0.1 µM, first compound 0.0316 µM) was 96.9%. For the same compound, the viability, T/C (second compound 0.1 µM, first compound 0.1 µM) was 92.2%, the viability, T/C (second compound 0.1 µM, first compound 0.316 µM) was 98.5% and the viability, T/C (second compound 0.1 µM, first compound 1 µM) was 97.8%. The viability, T/C (second compound 0.1 µM, first compound 3.16 µM) was 100%, the viability, T/C (second compound 0.1 µM, first compound 10 µM) was 73.2% and the viability, T/C (second compound 0.316 µM, first compound 0.0316 µM) was 94.2%. It also gave a viability, T/C (second compound 0.316 µM, first compound 0.1 µM) of 106%, a viability, T/C (second compound 0.316 µM, first compound 0.316 µM) of 106% and a viability, T/C (second compound 0.316 µM, first compound 1 µM) of 87.2%. For the same compound, the viability, T/C (second compound 0.316 µM, first compound 3.16 µM) was 91.1%, the viability, T/C (second compound 0.316 µM, first compound 10 µM) was 79.3% and the viability, T/C (second compound 1 µM, first compound 0.0316 µM) was 78.3%. The viability, T/C (second compound 1 µM, first compound 0.1 µM) was 91.6%, the viability, T/C (second compound 1 µM, first compound 0.316 µM) was 91.6% and the viability, T/C (second compound 1 µM, first compound 1 µM) was 79%. It also gave a viability, T/C (second compound 1 µM, first compound 3.16 µM) of 73.4%, a viability, T/C (second compound 1 µM, first compound 10 µM) of 68.5% and a viability, T/C (second compound 3.16 µM, first compound 0.0316 µM) of 87.6%. The viability, T/C (second compound 3.16 µM, first compound 0.1 µM) was 83.4%, the viability, T/C (second compound 3.16 µM, first compound 0.316 µM) was 71.6% and the viability, T/C (second compound 3.16 µM, first compound 1 µM) was 84.6%. The viability, T/C (second compound 3.16 µM, first compound 3.16 µM) was 66.5%, the viability, T/C (second compound 3.16 µM, first compound 10 µM) was 63% and the viability, T/C (second compound 10 µM, first compound 0.0316 µM) was 77.6%. It also gave a viability, T/C (second compound 10 µM, first compound 0.1 µM) of 75.1%, a viability, T/C (second compound 10 µM, first compound 0.316 µM) of 71.9% and a viability, T/C (second compound 10 µM, first compound 1 µM) of 68%. For the same compound, the viability, T/C (second compound 10 µM, first compound 3.16 µM) was 58.6% and the viability, T/C (second compound 10 µM, first compound 10 µM) was 62.7%.

In the case of `NS(=O)(=O)OCC1CC(n2ccc3c(NC4CCc5ccccc54)ncnc32)CC1O` (centres undefined), the viability, T/C (compound 0.00949 µM) is reported as 106% and 87.5%, the viability, T/C (compound 0.03 µM) is reported as 58.4% and 62.6% and the viability, T/C (compound 0.0949 µM) is reported as 35.3% and 33.8%. The viability, T/C (compound 0.3 µM) was 12.7% and 6.06%, the viability, T/C (compound 0.949 µM) was 7.91% and 3.62% and the viability, T/C (compound 3 µM) was 6.79% and 2.48%. For the same compound, the IC50 (curve of compound) was 44.9 nM and 49.1 nM.

`CC[C@@]1(O)C(=O)OCc2c1cc1n(c2=O)Cc2cc3c(CN(C)C)c(O)ccc3nc2-1` was tested, and the viability, T/C (compound 0.000316 µM) was 79.7% and 94.3%, the viability, T/C (compound 0.001 µM) was 70% and 85.8% and the viability, T/C (compound 0.00316 µM) was 63.5% and 72.9%. The viability, T/C (compound 0.01 µM) was 51.6% and 62.8%, the viability, T/C (compound 0.0316 µM) was 70% and 69.2% and the viability, T/C (compound 0.1 µM) was 94.3% and 109%. The IC50 (curve of compound) was greater than 100 nM.

`O=C(C=Cc1cccc(S(=O)(=O)Nc2ccccc2)c1)NO` + NC1CC1c1ccc(-c2cccc(O)c2)cc1 showed an IC50 [1] greater than 3000 nM, an IC50 [2] greater than 3000 nM and an IC50 [3] greater than 3000 nM. The IC50 [4] was 908 nM, the IC50 [5] was 759 nM and the viability, T/C (second compound 0.1 µM, first compound 0.00949 µM) was 108%. It also gave a viability, T/C (second compound 0.1 µM, first compound 0.03 µM) of 134%, a viability, T/C (second compound 0.1 µM, first compound 0.0949 µM) of 118% and a viability, T/C (second compound 0.1 µM, first compound 0.3 µM) of 113%. The viability, T/C (second compound 0.1 µM, first compound 0.949 µM) was 14.4%, the viability, T/C (second compound 0.1 µM, first compound 3 µM) was 89.1% and the viability, T/C (second compound 0.316 µM, first compound 0.00949 µM) was 126%. The viability, T/C (second compound 0.316 µM, first compound 0.03 µM) was 112%, the viability, T/C (second compound 0.316 µM, first compound 0.0949 µM) was 124% and the viability, T/C (second compound 0.316 µM, first compound 0.3 µM) was 115%. For the same compound, the viability, T/C (second compound 0.316 µM, first compound 0.949 µM) was 10.3%, the viability, T/C (second compound 0.316 µM, first compound 3 µM) was 97% and the viability, T/C (second compound 1 µM, first compound 0.00949 µM) was 95.2%. The viability, T/C (second compound 1 µM, first compound 0.03 µM) was 109%, the viability, T/C (second compound 1 µM, first compound 0.0949 µM) was 113% and the viability, T/C (second compound 1 µM, first compound 0.3 µM) was 113%. For the same compound, the viability, T/C (second compound 1 µM, first compound 0.949 µM) was 9.43%, the viability, T/C (second compound 1 µM, first compound 3 µM) was 91.8% and the viability, T/C (second compound 3.16 µM, first compound 0.00949 µM) was 86%. It also gave a viability, T/C (second compound 3.16 µM, first compound 0.03 µM) of 104%, a viability, T/C (second compound 3.16 µM, first compound 0.0949 µM) of 93.8% and a viability, T/C (second compound 3.16 µM, first compound 0.3 µM) of 108%. It also gave a viability, T/C (second compound 3.16 µM, first compound 0.949 µM) of 7.54%, a viability, T/C (second compound 3.16 µM, first compound 3 µM) of 88.7% and a viability, T/C (second compound 10 µM, first compound 0.00949 µM) of 86%. For the same compound, the viability, T/C (second compound 10 µM, first compound 0.03 µM) was 91.9%, the viability, T/C (second compound 10 µM, first compound 0.0949 µM) was 90.9% and the viability, T/C (second compound 10 µM, first compound 0.3 µM) was 109%. It also gave a viability, T/C (second compound 10 µM, first compound 0.949 µM) of 5% and a viability, T/C (second compound 10 µM, first compound 3 µM) of 73.7%.
